Source: paper PMC8607748 (Inorganic chemistry, 2020)

Test system: HL-60 cell line
Format: cell-based
Conditions: free ligand

SMILES | activity of the ejected monodentate ligand (cell killing)
c1ccncc1 [pyridine] | inactive
c1cnccn1 [pyrazine] | inactive
